Calls of active or inactive are those of the source.

Our source for the IC50, AC50 and EC50 values is ChEMBL document CHEMBL1201862, “PubChem BioAssay data set” (2004).

Assay [1] can be described thus: M. tuberculosis H37Rv growth inhibitors, H37Rv strain (AID 1626). It counts as functional.
Assay [2] addresses Mitogen-activated protein kinase 10 (Homo sapiens, UniProt P53779). Briefly: Dose response biochemical screening assay for inhibitors of c-Jun N-Terminal Kinase 3 (JNK3). [Related pubchem assays: 746 ].
Assay [3] is described as follows: toxicity to human hepatoma HepG2 cells – cell-based, cherry-picked samples, cytotoxicity control, dose response (AID 1159577). It is filed as functional.
Assay [4] is described as follows: P. falciparum Dd2 growth inhibitors, dose response, SYBR Green, cherry-picked samples (AID 1159567). It counts as functional, cell-based.
Assay [5] can be described thus: growth inhibition of yeast DHODH-expressing 3D7 parasites – SYBR Green, dry powder samples, dose response (AID 1159570).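 Further: parasite growth measured after 72 hours of compound exposure.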 It counts as functional, cell-based.
Assay [6] in a line: Dd2 malaria parasite growth inhibition potency – SYBR Green, dry powder samples, dose response (AID 1159566).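 Further: potency for growth inhibition with lower SYBR green DNA signal.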 It is filed as functional, cell-based.
Assay [7] in a line: growth inhibition of PfATP4-mutant resistant parasites – NITD609-resistant line, SYBR Green, dry powder, dose response (AID 1159571).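 Further: parasites synchronized at ring stage by sorbitol before testing.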 It is filed as functional, cell-based.
Another assay concerns the target T1, Caspase-6 (Homo sapiens, UniProt P55212).
T1 sequence (P55212 whole entry): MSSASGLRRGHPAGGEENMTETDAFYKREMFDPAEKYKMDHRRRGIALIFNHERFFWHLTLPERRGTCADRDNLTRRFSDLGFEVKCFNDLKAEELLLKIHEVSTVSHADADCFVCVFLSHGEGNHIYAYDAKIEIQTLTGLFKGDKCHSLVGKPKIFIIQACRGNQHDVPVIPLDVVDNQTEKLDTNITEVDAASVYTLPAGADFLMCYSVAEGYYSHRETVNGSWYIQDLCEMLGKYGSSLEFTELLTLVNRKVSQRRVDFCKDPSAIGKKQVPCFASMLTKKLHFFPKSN
Briefly: inhibition of CASP6 peptide cleavage – biochemical, VEID-R110 fluorescence, cherry-pick, dose response (AID 720632).

Another assay has as its target Prothrombin (Homo sapiens, UniProt P00734). Briefly: Thrombin 1536 HTS Dose Response Confirmation. [Related pubchem assays: 1046 (Thrombin 1536 HTS; hits were confirmed in this assay)]. It is filed as functional.
For another assay, the target named is Cytochrome P450 3A4 (Homo sapiens, UniProt P08684).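 Further: CYP3A4 tested as one member of a cytochrome P450 panel screen.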
Sequence of Cytochrome P450 3A4 (P08684 whole entry): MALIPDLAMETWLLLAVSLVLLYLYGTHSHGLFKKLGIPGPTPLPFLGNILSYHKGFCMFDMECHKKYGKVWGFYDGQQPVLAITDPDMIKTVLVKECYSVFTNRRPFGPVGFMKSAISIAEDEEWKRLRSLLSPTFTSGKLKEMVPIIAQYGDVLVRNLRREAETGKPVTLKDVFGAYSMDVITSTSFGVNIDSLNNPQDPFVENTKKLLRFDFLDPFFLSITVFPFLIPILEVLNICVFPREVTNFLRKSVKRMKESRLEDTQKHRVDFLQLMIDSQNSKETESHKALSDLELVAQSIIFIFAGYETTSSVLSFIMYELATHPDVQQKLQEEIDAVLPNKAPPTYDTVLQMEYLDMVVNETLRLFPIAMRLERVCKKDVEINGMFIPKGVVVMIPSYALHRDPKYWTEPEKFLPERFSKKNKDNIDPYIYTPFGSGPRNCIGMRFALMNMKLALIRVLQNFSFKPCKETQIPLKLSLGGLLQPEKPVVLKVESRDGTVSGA
Assay [8] can be described thus: Luminescence Cell-Based Dose Response HTS to Identify Activators of Luciferase Translation or Activity in H4 […] Cells. [Related pubchem assays: 1829 (Project Summary), 1814 (Primary HTS)]. It is filed as functional.
A short description of assay [9]: Luminescence Cell-Based Dose Confirmation to Identify Activators of 5'UTR Stem-Loop Driven Alpha-Synuclein mRNA Translation in H4 Neuroglioblastoma Cells. [Related pubchem assays: 1829 (Project Summary), 1814 (Primary HTS)]. It is filed as functional.
The nature of assay [10]: Luminescence Cell-Based Dose Response to Identify Activators of 5'UTR Stem-Loop Driven Prion Protein mRNA Translation in H4-C Neuroglioblastoma Cells. [Related pubchem assays: 1829 (Project Summary), 1814 (Primary HTS)]. It counts as functional.
The next assay relates to H4. In words: Luminescence Cell-Based Dose Response HTS to Identify Activators of 5'UTR Stem-Loop Driven Prion Protein mRNA Translation in H4 Neuroglioblastoma Cells. [Related pubchem assays: 1829 (Project Summary), 1814 (Primary HTS)]. As to conditions: Homo sapiens. It counts as functional.
A short description of assay [11]: Luminescence Cell-Based Dose Response to Identify Activators of Luciferase Translation or Activity in H4-C Neuroglioblastoma Cells. [Related pubchem assays: 1829 (Project Summary), 1814 (Primary HTS)]. It counts as functional.
Assay [12] has as its target T2, Sentrin-specific protease 7 (Homo sapiens, UniProt Q9BQF6).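 Further: Luminescence-based dose-response confirmation of ultra-high-throughput screening hits, measuring inhibition of SENP7.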
T2 sequence (Q9BQF6 whole entry): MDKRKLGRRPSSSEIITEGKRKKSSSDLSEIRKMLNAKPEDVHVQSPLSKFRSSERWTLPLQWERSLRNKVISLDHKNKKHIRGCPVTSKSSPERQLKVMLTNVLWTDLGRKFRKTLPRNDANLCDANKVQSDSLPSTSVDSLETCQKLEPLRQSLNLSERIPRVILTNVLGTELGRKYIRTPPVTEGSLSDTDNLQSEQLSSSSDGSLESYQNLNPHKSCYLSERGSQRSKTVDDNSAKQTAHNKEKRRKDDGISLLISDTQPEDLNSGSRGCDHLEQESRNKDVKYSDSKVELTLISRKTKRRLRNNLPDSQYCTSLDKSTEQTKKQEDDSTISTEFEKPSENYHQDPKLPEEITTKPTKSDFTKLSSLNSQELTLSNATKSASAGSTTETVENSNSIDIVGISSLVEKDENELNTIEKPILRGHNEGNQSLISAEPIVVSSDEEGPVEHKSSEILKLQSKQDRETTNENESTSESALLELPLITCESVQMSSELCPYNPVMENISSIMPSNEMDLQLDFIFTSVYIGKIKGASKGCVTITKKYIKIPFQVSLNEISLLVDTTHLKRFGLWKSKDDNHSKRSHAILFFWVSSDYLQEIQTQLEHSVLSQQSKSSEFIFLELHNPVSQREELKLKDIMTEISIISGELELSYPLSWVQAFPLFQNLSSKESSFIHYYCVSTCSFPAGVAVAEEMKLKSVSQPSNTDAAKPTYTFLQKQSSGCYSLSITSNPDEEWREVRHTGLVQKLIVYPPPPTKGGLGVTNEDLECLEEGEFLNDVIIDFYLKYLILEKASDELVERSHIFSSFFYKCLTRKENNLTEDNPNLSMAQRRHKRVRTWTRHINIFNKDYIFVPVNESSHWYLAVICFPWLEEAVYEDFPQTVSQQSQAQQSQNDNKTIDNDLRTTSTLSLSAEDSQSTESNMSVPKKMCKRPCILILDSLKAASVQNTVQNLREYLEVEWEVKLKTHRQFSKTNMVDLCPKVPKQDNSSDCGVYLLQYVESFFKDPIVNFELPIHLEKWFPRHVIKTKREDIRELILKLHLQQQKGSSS
It is filed as functional.

The target of a further assay is T3, Caspase-3 (Homo sapiens, UniProt P42574).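 Further: Dose-response selectivity test against caspase-3 for candidate inhibitors of sentrin-specific proteases (SENPs).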
T3 sequence (P42574 whole entry): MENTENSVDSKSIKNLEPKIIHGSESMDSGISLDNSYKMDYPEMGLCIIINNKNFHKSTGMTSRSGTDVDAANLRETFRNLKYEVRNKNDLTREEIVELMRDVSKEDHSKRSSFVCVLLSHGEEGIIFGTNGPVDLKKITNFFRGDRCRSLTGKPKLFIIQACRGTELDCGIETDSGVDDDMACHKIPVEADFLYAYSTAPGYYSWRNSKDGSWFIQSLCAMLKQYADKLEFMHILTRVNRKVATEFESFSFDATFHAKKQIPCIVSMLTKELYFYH
It counts as functional.

Assay [13] deals with T4, Sentrin-specific protease 6 (Homo sapiens, UniProt Q9GZR1).
T4 sequence (Q9GZR1 whole entry): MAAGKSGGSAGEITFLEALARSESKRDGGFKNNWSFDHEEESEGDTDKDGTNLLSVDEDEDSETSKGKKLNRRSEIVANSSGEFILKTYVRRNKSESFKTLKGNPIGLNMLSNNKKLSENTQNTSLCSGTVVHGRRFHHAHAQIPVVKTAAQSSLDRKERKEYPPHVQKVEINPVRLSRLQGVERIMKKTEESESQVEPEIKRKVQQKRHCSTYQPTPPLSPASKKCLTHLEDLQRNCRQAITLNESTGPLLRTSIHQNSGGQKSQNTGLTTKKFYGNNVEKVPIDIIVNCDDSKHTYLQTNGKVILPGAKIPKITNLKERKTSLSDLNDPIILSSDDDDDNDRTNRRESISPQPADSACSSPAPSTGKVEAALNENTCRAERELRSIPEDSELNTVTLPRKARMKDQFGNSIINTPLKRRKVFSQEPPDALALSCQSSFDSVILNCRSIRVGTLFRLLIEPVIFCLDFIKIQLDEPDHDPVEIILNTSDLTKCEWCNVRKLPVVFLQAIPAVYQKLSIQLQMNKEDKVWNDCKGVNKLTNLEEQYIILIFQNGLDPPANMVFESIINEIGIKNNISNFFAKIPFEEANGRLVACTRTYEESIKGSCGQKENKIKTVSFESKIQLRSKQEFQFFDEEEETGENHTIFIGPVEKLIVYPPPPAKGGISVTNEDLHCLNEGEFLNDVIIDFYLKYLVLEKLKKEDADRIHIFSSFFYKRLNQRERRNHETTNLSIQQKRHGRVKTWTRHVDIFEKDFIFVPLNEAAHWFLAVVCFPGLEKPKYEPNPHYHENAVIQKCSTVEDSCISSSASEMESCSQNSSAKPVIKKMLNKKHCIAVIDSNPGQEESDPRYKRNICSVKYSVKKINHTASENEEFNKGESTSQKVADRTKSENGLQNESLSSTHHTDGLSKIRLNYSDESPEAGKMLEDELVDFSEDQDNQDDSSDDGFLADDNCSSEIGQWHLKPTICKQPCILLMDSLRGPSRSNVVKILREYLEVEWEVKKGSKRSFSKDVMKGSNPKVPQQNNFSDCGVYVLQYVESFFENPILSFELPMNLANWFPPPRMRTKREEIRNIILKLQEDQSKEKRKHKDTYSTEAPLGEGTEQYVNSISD
It is filed as functional.

For assay [14], the target named is T5, Sentrin-specific protease 8 (Homo sapiens, UniProt Q96LD8).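 Further: luminescence read-out of SENP8 inhibition, dose-response confirmation following an ultra-high-throughput screen.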
T5 sequence (Q96LD8 whole entry): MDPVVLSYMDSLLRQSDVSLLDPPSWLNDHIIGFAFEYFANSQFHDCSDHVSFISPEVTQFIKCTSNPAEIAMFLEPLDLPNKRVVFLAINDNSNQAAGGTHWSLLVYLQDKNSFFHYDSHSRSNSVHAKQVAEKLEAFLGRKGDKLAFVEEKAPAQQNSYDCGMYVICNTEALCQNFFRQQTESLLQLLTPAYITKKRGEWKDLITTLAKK
It is filed as functional.

A short description of assay [15]: Luminescence Cell-Based Dose Confirmation HTS to Identify Activators of 5'UTR Stem-Loop Driven Alpha-Synuclein mRNA Translation in H4 Neuroglioblastoma Cells. [Related pubchem assays: 1829 (Project Summary), 1814 (Primary HTS)]. It is filed as functional.

Sequence of Mitogen-activated protein kinase 10 (P53779 whole entry): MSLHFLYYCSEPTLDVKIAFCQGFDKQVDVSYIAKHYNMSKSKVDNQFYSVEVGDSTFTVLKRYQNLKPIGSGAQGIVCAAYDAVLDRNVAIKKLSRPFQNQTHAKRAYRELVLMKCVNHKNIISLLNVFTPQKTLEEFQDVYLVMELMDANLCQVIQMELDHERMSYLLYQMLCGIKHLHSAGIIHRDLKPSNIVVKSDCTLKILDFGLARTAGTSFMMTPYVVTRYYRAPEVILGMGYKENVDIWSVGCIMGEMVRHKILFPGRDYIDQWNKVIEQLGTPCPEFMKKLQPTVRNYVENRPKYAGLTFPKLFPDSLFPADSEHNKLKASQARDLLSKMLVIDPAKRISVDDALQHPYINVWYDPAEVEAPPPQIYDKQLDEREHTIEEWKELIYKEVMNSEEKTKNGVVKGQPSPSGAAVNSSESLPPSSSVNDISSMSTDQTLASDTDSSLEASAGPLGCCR

For the molecule `CCCc1nc2sc3ccccc3c(=O)c2c(=O)n1Cc1ccc(OC)cc1`, in assay [1], the IC50 (in general, the midpoint of a concentration-inhibition curve) was > 100 µM (active).

`COc1ccc(OC)c(C(=O)c2coc3ccc(O)cc23)c1`: in assay [2], the IC50 is on record as > 93.1 µM (not active).

As for `O=C(C1CCCCC1)N1CC(=O)N2[C@H](C1)[C@@H](c1ccc(C#Cc3cccc(F)c3)cc1)[C@@H]2CO`, the AC50 (usually the concentration giving half of the maximal activity seen) in [3] was > 39 µM (inactive); in [4], 4.26 µM (active).

Turning to `CCOC(=O)c1ccc(NC(=O)N2CCN(Cc3ccccc3)CC2)cc1`, the IC50 in assay [1] was > 100 µM (active).

For `CC(C)CNC[C@@H]1[C@@H](c2ccccc2)[C@@H](CO)N1Cc1ccc(F)cc1`, the AC50 in [4] is 1.33 µM (active); in [5], 3.03 µM (active); in [6], 0.409 µM (active); in assay [7], 0.727 µM (active).

`CC(=O)Nc1cccc2cc(S(=O)(=O)O)ccc12`: at Caspase-6, the AC50 was 15.6 µM (active).

Regarding `Nc1nc(COc2ccc(Cl)cc2)cs1`, in [1], the IC50 is > 100 µM (active).

For `COC(=O)c1n[nH]c(NC(=O)c2ccccc2Br)n1`, the IC50 on Prothrombin is 0.082 µM (active).

For `CCOc1nn(-c2ccccc2)c(O)c1/C=N/c1ccc(OC)cc1`, in assay [1], the IC50 is > 100 µM (active).

With `COc1cccc(S(=O)(=O)Nc2ccc3c(c2)[C@@H]2C[C@H](CC(=O)NCc4cccc(F)c4)O[C@@H](CO)[C@@H]2O3)c1`, the AC50 is 22.7 µM (active) in assay [3] and 6.43 µM (active) in assay [4].

For the molecule `COC(=O)CSc1nnc(-c2ccccc2OC)n1-c1ccc(C)cc1`, on Prothrombin, the half-inhibitory concentration (IC50) is reported as > 50 µM (not active). In addition, on Cytochrome P450 3A4, the AC50 was 15.8 µM (inconclusive).

Turning to `O=C1c2ccccc2C(=O)c2c([N+](=O)[O-])ccc(O)c21`, the AC50 at Caspase-6 is 9.76 µM (active).

Regarding `CCN(Cc1nc(O)c2ccccc2n1)C(=O)c1cc(C2CC2)nn1-c1ccccc1`, the IC50 in the assay “cells” is 8.79 µM (active).

With `O=C(CCCCCn1c(SCC(=O)c2ccccc2)nc2ccccc2c1=O)NCc1ccco1`, the IC50 in assay [2] was 38.9 µM (not active).

Regarding `COc1ccc2c3c(n(C)c2c1)[C@H](CO)N(CC1CCCCC1)CC31CCN(Cc2nccs2)CC1`, the AC50 is 1.94 µM (active) in assay [4], 1.26 µM (active) in assay [5], 1.62 µM (active) in assay [6] and 1.52 µM (active) in [7].

As to `Cc1ccc(C)n1-c1sc2c(c1C(=O)O)CCCC2`, at Caspase-6, the AC50 is 6.02 µM (active).

Take `CC(C(=O)N=Nc1c(O)[nH]c2ccccc12)n1cnc2ccccc2c1=O` (stereo not given): the IC50 in the assay “cells” was > 50 µM (active).

`Nc1nnc(CC(=O)N/N=C/c2cccc(OCCOc3ccccc3)c2)s1`: the EC50 (as a rule, the concentration at which the effect is half-maximal) in assay [8] was < 0.1 µM (active); in assay [9], 0.38 µM (active); in assay [10], 1.25 µM (active); in the assay on H4, 21.8 µM (active); in assay [11], 0.88 µM (active).

For the molecule `C[C@@H]1CN([C@H](C)CO)C(=O)c2c(c3ccccc3n2C)-c2ccccc2CO[C@H]1CN(C)Cc1ccc(Cl)c(Cl)c1`, the AC50 in assay [3] is 30 µM (active); in [4], 3.7 µM (active).

Regarding `Cc1ccc(OCc2nc(-c3ccccc3)no2)c(C)c1`, the EC50 was < 0.1 µM (active) in [8], 8.27 µM (active) in assay [9], 1.03 µM (active) in assay [10] and > 12 µM (not active) in assay [11]. Further, the IC50 in [12] was 7.65 µM (active); on Caspase-3, 28.9 µM (active); in [13], 11.8 µM (active); in assay [14] it was 62 µM (active).

Regarding `COc1ccc(NC(=O)n2nc(OC(=O)c3cccs3)cc2N)cc1`, the EC50 in [8] is 12.1 µM (active); in [15] it was > 60 µM (not active); with H4, 28.1 µM (active). The IC50 on Prothrombin is 12.7 µM (active).
